Assay results published in US20240166652A1, “MODULATORS OF THE INTEGRATED STRESS PATHWAY” (Calico Life Sciences LLC, priority 2017, published 2024).

What follows are molecules tested on ATF4 luciferase reporter in HEK293T cells (assay: ATF4-Luc assay (ATF4 luciferase reporter, tunicamycin-treated HEK293T cells)). Details: Homo sapiens, HEK-293T; HEK293T cells carrying the ATF4 luciferase reporter, 1 μg/mL tunicamycin, 7 hours.
Type: cell-based, human

SMILES	EC50 [nM]
O=C(COc1ccc(Cl)c(F)c1)NC12CCC(NC(=O)Cc3ccc(OC(F)(F)F)cc3)(CC1)C(O)C2 (stereo not drawn) [Compound 326, 2-(4-chloro-3-fluorophenoxy)-N-(3-hydroxy-4-{2-[4-(trifluoromethoxy)phenyl]acetamido}bicyclo[2.2.2]octan-1-yl)acetamide]	50 to 250
O=C(COc1ccc(Cl)c(F)c1)NC12CCC(NC(=O)COc3ccc(Cl)c(F)c3)(CC1)CC2 [Compound 100, N,N′-(bicyclo[2.2.2]octane-1,4-diyl)bis[2-(4-chloro-3-fluorophenoxy)acetamide]]	< 10
O=C(COc1ccc(Cl)cc1)NC12CCC(NC(=O)COc3ccc(Cl)cc3)(C1)C2 [Compound 176, N,N′-(bicyclo[2.1.1]hexane-1,4-diyl)bis[2-(4-chlorophenoxy)acetamide]]	10 to 50
O=C(COc1ccc(Cl)c(F)c1)NC12CC(NC(=O)COc3c(F)cc(F)cc3F)(C1)C2 [Compound 406, 2-(4-chloro-3-fluorophenoxy)-N-{3-[2-(2,4,6-trifluorophenoxy)acetamido]bicyclo[1.1.1]pentan-1-yl}acetamide]	10 to 50
Cc1cc(OCC(=O)NC23CCC(NC(=O)COc4ccc(F)cc4)(CC2)[C@@H](O)C3)ccc1F [Compound 817, 2-(4-fluoro-3-methylphenoxy)-N-{(3S)-4-[2-(4-fluorophenoxy)acetamido]-3-hydroxybicyclo[2.2.2]octan-1-yl}acetamide]	< 10
O=C(COc1ccc(Cl)c(F)c1)NC12CC(NC(=O)CC(=O)c3ccc(Cl)cc3)(C1)C2 [Compound 293, N-{3-[2-(4-chloro-3-fluorophenoxy)acetamido]bicyclo[1.1.1]pentan-1-yl}-3-(4-chlorophenyl)-3-oxopropanamide]	250 to 500
O=C(COCCc1cccc(F)c1)NC12CC(NC(=O)COc3ccc(Cl)c(Cl)c3)(C1)C2 [Compound 150, 2-(3,4-dichlorophenoxy)-N-(3-{2-[2-(3-fluorophenyl)ethoxy]acetamido}-bicyclo[1.1.1]pentan-1-yl)acetamide]	10 to 50
COc1ncc(OCC(=O)NC23CCC(NC(=O)COc4cnc(OC)nc4)(CC2)[C@@H](O)C3)cn1 [Compound 626, N,N′-[(2S)-2-hydroxybicyclo[2.2.2]octane-1,4-diyl]bis{2-[(2-methoxypyrimidin-5-yl)oxy]acetamide}]	> 2000
Cc1ccc(OCC(=O)NC23CC(NC(=O)COc4ccc(Cl)c(F)c4)(C2)C3)c(C)n1 [Compound 232, 2-(4-chloro-3-fluorophenoxy)-N-(3-{2-[(2,6-dimethylpyridin-3-yl)oxy]acetamido}bicyclo[1.1.1]pentan-1-yl)acetamide]	500 to 2000
N#Cc1cccc(COCC(=O)NC23CC(NC(=O)COc4ccc(Cl)c(F)c4)(C2)C3)c1 [Compound 138, 2-(4-chloro-3-fluorophenoxy)-N-(3-{2-[(3-cyanophenyl)methoxy]acetamido}-bicyclo[1.1.1]pentan-1-yl)acetamide]	250 to 500
COc1ccc(OCC(=O)NC23CCC(NC(=O)COc4ccc(Cl)c(F)c4)(CC2)[C@@H](O)C3)cn1 [Compound 651, 2-(4-chloro-3-fluorophenoxy)-N-[(2S)-2-hydroxy-4-{2-[(6-methoxypyridin-3-yl)oxy]acetamido}bicyclo[2.2.2]octan-1-yl]acetamide]	< 10
COC(=O)c1cc(OCC(=O)NC23CCC(NC(=O)COc4ccc(Cl)c(F)c4)(CC2)C[C@@H]3O)no1 [Compound 519, methyl 3-[2-({(2S)-4-[2-(4-chloro-3-fluorophenoxy)acetamido]-2-hydroxybicyclo[2.2.2]octan-1-yl}amino)-2-oxoethoxy]-1,2-oxazole-5-carboxylate]	> 2000
O=C(COCc1ccc(-n2cccn2)nc1)NC12CC(NC(=O)COc3ccc(Cl)c(F)c3)(C1)C2 [Compound 280, 2-(4-chloro-3-fluorophenoxy)-N-[3-(2-{[6-(1H-pyrazol-1-yl)pyridin-3-yl]methoxy}acetamido)bicyclo[1.1.1]pentan-1-yl]acetamide]	> 2000
Cc1ccc(CCOCC(=O)NC23CC(NC(=O)COc4ccc(Cl)c(F)c4)(C2)C3)cc1 [Compound 137, 2-(4-chloro-3-fluorophenoxy)-N-(3-{2-[2-(4-methylphenyl)ethoxy]acetamido}-bicyclo[1.1.1]pentan-1-yl)acetamide]	500 to 2000
O=C(COc1ccc(Cl)c(F)c1)NC12CCC(NC(=O)COc3ccc(Cl)c(F)c3)(CC1)C(O)C2 (stereo not drawn) [Compound 273, N,N′-(2-hydroxybicyclo[2.2.2]octane-1,4-diyl)bis[2-(4-chloro-3-fluorophenoxy)acetamide]]	< 10
O=C(COc1ccc(Cl)c(F)c1)N[C@H]1C(=O)C[C@@]2(NC(=O)COc3ccc(Cl)c(F)c3)CC[C@@H]1C2 [Compound 652, N,N′-[(1R,4R,5R)-3-oxobicyclo[3.2.1]octane-1,4-diyl]bis[2-(4-chloro-3-fluorophenoxy)acetamide]]	10 to 50
O=C(COc1ccc2c(c1)OC(F)(F)O2)NC12CCC(NC(=O)COc3ccc4c(c3)OC(F)(F)O4)(CC1)[C@@H](O)C2 [Compound 542, N,N′-[(2S)-2-hydroxybicyclo[2.2.2]octane-1,4-diyl]bis{2-[(2,2-difluoro-2H-1,3-benzodioxol-5-yl)oxy]acetamide}]	< 10
O=C(COc1ccc(OC(F)(F)F)cc1)NC12CCC(NC(=O)COc3ccc(Cl)cc3)(CC1)[C@@H](O)C2 [Compound 783, 2-(4-chlorophenoxy)-N-[(2S)-2-hydroxy-4-{2-[4-(trifluoromethoxy)phenoxy]acetamido}bicyclo[2.2.2]octan-1-yl]acetamide]	< 10
O=C(COc1ccc(Cl)c(Cl)c1)NC12CC(NC(=O)OCCCc3cccc(Cl)c3)(C1)C2 [Compound 174, 3-(3-chlorophenyl)propyl {3-[2-(3,4-dichlorophenoxy)acetamido]-bicyclo[1.1.1]pentan-1-yl}carbamate]	250 to 500
O=C(/C=C/c1ccc(Cl)c(Cl)c1)NC12CC(NC(=O)/C=C/c3ccc(Cl)c(Cl)c3)(C1)C2 [Compound 367, (2E,2′E)-N,N′-(bicyclo[1.1.1]pentane-1,3-diyl)bis[3-(3,4-dichlorophenyl)prop-2-enamide]]	> 2000
CCCC1CC2(NC(=O)COc3ccc(Cl)c(F)c3)CCC1(NC(=O)COc1ccc(Cl)c(F)c1)CC2 (stereo not drawn) [Compound 723, N,N′-(2-propylbicyclo[2.2.2]octane-1,4-diyl)bis[2-(4-chloro-3-fluorophenoxy)acetamide]]	10 to 50
O=C(COc1ccc(C(F)(F)F)c(F)c1)NC12CCC(NC(=O)COc3ccc(Cl)c(F)c3)(CC1)[C@@H](O)C2 [Compound 849, 2-(4-chloro-3-fluorophenoxy)-N-[(2S)-4-{2-[3-fluoro-4-(trifluoromethyl)phenoxy]acetamido}-2-hydroxybicyclo[2.2.2]octan-1-yl]acetamide]	< 10
Cc1cc(OCC(=O)NC23CC(NC(=O)COc4ccc(Cl)c(F)c4)(C2)C3)cc(C)n1 [Compound 220, 2-(4-chloro-3-fluorophenoxy)-N-(3-{2-[(2,6-dimethylpyridin-4-yl)oxy]acetamido}bicyclo[1.1.1]pentan-1-yl)acetamide]	500 to 2000
O=C(COc1ccc(Cl)c(F)c1)NC12CCC(=O)C(NC(=O)COc3ccc(Cl)c(F)c3)(CC1)C2 (stereo not drawn) [Compound 671, N,N′-(2-oxobicyclo[3.2.1]octane-1,5-diyl)bis[2-(4-chloro-3-fluorophenoxy)acetamide]]	500 to 2000
